According to the supplement of paper PMC10307832:

Columns and labels:
Assay in all cases: relative viability (nuclei count vs DMSO), 5 days (fraction); higher = more cells survive
201T = system: 201T
Outline: (§1)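 Lung cancer cell lines, seeded in 1536-well plates, were treated the following day by pin tool with a single drug or with five library-drug doses (not always all listed) in √10 steps on top of a fixed anchor-drug dose. Cells were fixed and nuclei stained in one step after 5 days, and nuclei were counted. Relative viability is the nuclei count for treated wells divided by that for vehicle wells, reported as medians of duplicate plates.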

A-427 = system: A-427
Outline: as §1

COR-L23 = system: COR-L23
Outline: as §1

H3255 = system: H3255
Outline: as §1

LCLC-97TM1 = system: LCLC-97TM1
Outline: as §1

LK-2 = system: LK-2
Outline: as §1

LU99A = system: LU99A
Outline: as §1

NCI-H1563 = system: NCI-H1563
Outline: as §1

NCI-H1650 = system: NCI-H1650
Outline: as §1

NCI-H1651 = system: NCI-H1651
Outline: as §1

NCI-H1793 = system: NCI-H1793
Outline: as §1

NCI-H1944 = system: NCI-H1944
Outline: as §1

NCI-H2347 = system: NCI-H2347
Outline: as §1

NCI-H23 = system: NCI-H23
Outline: as §1

NCI-H460 = system: NCI-H460
Outline: as §1

NCI-H650 = system: NCI-H650
Outline: as §1

NCI-H727 = system: NCI-H727
Outline: as §1

NCI-H838 = system: NCI-H838
Outline: as §1

PC-14 = system: PC-14
Outline: as §1

PC-3 [JPC-3] = system: PC-3 [JPC-3]
Outline: as §1

RERF-LC-KJ = system: RERF-LC-KJ
Outline: as §1

SW 1573 = system: SW 1573
Outline: as §1

C[C@@H]1CN(CC(=O)Nc2ccc3c(c2)Cc2cccc(-c4cc(=O)cc(N5CCOCC5)o4)c2S3)C[C@H](C)O1 + CS(=O)(=O)CCNCc1ccc(-c2ccc3ncnc(Nc4ccc(OCc5cccc(F)c5)c(Cl)c4)c3c2)o1 [Lapatinib] (partner 2 µM)
relative viability (201T; first compound 0.04 µM): 1.07
relative viability (201T; first compound 0.1265 µM): 0.976
relative viability (201T; first compound 0.4 µM): 1.08
relative viability (201T; first compound 4 µM): 0.988
relative viability (A-427; first compound 0.04 µM): 0.898
relative viability (A-427; first compound 0.1265 µM): 1.05
relative viability (A-427; first compound 0.4 µM): 1.18
relative viability (A-427; first compound 4 µM): 1.01
relative viability (COR-L23; first compound 0.04 µM): 0.893
relative viability (COR-L23; first compound 0.1265 µM): 1.08
relative viability (COR-L23; first compound 0.4 µM): 1.12
relative viability (COR-L23; first compound 4 µM): 1.05
relative viability (H3255; first compound 0.04 µM): 0.221
relative viability (H3255; first compound 0.1265 µM): 0.242
relative viability (H3255; first compound 0.4 µM): 0.233
relative viability (H3255; first compound 4 µM): 0.214
relative viability (LCLC-97TM1; first compound 0.1265 µM): 0.851
relative viability (LCLC-97TM1; first compound 0.4 µM): 0.867
relative viability (LCLC-97TM1; first compound 4 µM): 0.858
relative viability (LK-2; first compound 0.1265 µM): 0.938
relative viability (LK-2; first compound 0.4 µM): 0.936
relative viability (LK-2; first compound 4 µM): 0.948
relative viability (LU99A; first compound 0.04 µM): 0.783
relative viability (LU99A; first compound 0.1265 µM): 1.15
relative viability (LU99A; first compound 0.4 µM): 1.08
relative viability (LU99A; first compound 4 µM): 1.04
relative viability (NCI-H1563; first compound 0.04 µM): 0.834
relative viability (NCI-H1563; first compound 0.1265 µM): 0.883
relative viability (NCI-H1563; first compound 0.4 µM): 0.859
relative viability (NCI-H1563; first compound 4 µM): 0.702
relative viability (NCI-H1650; first compound 0.04 µM): 0.287
relative viability (NCI-H1650; first compound 0.1265 µM): 0.812
relative viability (NCI-H1650; first compound 0.4 µM): 0.719
relative viability (NCI-H1650; first compound 4 µM): 0.588
relative viability (NCI-H1651; first compound 0.04 µM): 0.82
relative viability (NCI-H1651; first compound 0.1265 µM): 0.889
relative viability (NCI-H1651; first compound 0.4 µM): 0.78
relative viability (NCI-H1651; first compound 4 µM): 0.795
relative viability (NCI-H1793; first compound 0.04 µM): 0.809
relative viability (NCI-H1793; first compound 0.1265 µM): 0.743
relative viability (NCI-H1793; first compound 0.4 µM): 0.734
relative viability (NCI-H1793; first compound 4 µM): 0.649
relative viability (NCI-H1944; first compound 0.1265 µM): 0.803
relative viability (NCI-H1944; first compound 0.4 µM): 0.977
relative viability (NCI-H1944; first compound 4 µM): 0.876
relative viability (NCI-H2347; first compound 0.04 µM): 0.79
relative viability (NCI-H2347; first compound 0.1265 µM): 1.04
relative viability (NCI-H2347; first compound 0.4 µM): 0.988
relative viability (NCI-H2347; first compound 4 µM): 0.875
relative viability (NCI-H23; first compound 0.04 µM): 0.886
relative viability (NCI-H23; first compound 0.1265 µM): 1.16
relative viability (NCI-H23; first compound 0.4 µM): 1.01
relative viability (NCI-H23; first compound 4 µM): 1.04
relative viability (NCI-H460; first compound 0.04 µM): 0.941
relative viability (NCI-H460; first compound 0.1265 µM): 1.02
relative viability (NCI-H460; first compound 0.4 µM): 1.04
relative viability (NCI-H460; first compound 4 µM): 0.799
relative viability (NCI-H650; first compound 0.04 µM): 0.583
relative viability (NCI-H650; first compound 0.1265 µM): 0.852
relative viability (NCI-H650; first compound 0.4 µM): 0.857
relative viability (NCI-H650; first compound 4 µM): 0.697
relative viability (NCI-H727; first compound 0.04 µM): 0.9
relative viability (NCI-H727; first compound 0.1265 µM): 0.801
relative viability (NCI-H727; first compound 0.4 µM): 0.78
relative viability (NCI-H727; first compound 4 µM): 0.752
relative viability (NCI-H838; first compound 0.04 µM): 0.911
relative viability (NCI-H838; first compound 0.1265 µM): 0.911
relative viability (NCI-H838; first compound 0.4 µM): 0.883
relative viability (NCI-H838; first compound 4 µM): 0.781
relative viability (PC-14; first compound 0.04 µM): 0.277
relative viability (PC-14; first compound 0.1265 µM): 0.298
relative viability (PC-14; first compound 0.4 µM): 0.298
relative viability (PC-14; first compound 4 µM): 0.316
relative viability (PC-3 [JPC-3]; first compound 0.04 µM): 0.512
relative viability (PC-3 [JPC-3]; first compound 0.1265 µM): 0.394
relative viability (PC-3 [JPC-3]; first compound 0.4 µM): 0.52
relative viability (PC-3 [JPC-3]; first compound 4 µM): 0.454
relative viability (RERF-LC-KJ; first compound 0.04 µM): 0.873
relative viability (RERF-LC-KJ; first compound 0.1265 µM): 0.877
relative viability (RERF-LC-KJ; first compound 0.4 µM): 0.808
relative viability (RERF-LC-KJ; first compound 4 µM): 0.799
relative viability (SW 1573; first compound 0.04 µM): 1.1
relative viability (SW 1573; first compound 0.1265 µM): 1.14
relative viability (SW 1573; first compound 0.4 µM): 1.18
relative viability (SW 1573; first compound 4 µM): 1.08

CC(C)Oc1cc(Nc2nc(N[C@@H](C)c3ccc(F)cn3)ncc2Cl)n[nH]1 [AZ23] + CS(=O)(=O)CCNCc1ccc(-c2ccc3ncnc(Nc4ccc(OCc5cccc(F)c5)c(Cl)c4)c3c2)o1 [Lapatinib] (partner 2 µM)
relative viability (201T; first compound 0.01 µM): 1.03
relative viability (201T; first compound 0.03162 µM): 1
relative viability (201T; first compound 0.3162 µM): 1.1
relative viability (A-427; first compound 0.01 µM): 1.24
relative viability (A-427; first compound 0.03162 µM): 1.02
relative viability (A-427; first compound 0.3162 µM): 1.03
relative viability (COR-L23; first compound 0.01 µM): 1.12
relative viability (COR-L23; first compound 0.03162 µM): 1.1
relative viability (COR-L23; first compound 0.3162 µM): 1
relative viability (H3255; first compound 0.01 µM): 0.203
relative viability (H3255; first compound 0.03162 µM): 0.252
relative viability (H3255; first compound 0.3162 µM): 0.279
relative viability (LCLC-97TM1; first compound 0.01 µM): 0.881
relative viability (LCLC-97TM1; first compound 0.03162 µM): 0.842
relative viability (LCLC-97TM1; first compound 0.3162 µM): 1.23
relative viability (LK-2; first compound 0.01 µM): 0.958
relative viability (LK-2; first compound 0.03162 µM): 1.3
relative viability (LK-2; first compound 0.3162 µM): 0.685
relative viability (LU99A; first compound 0.01 µM): 1.2
relative viability (LU99A; first compound 0.03162 µM): 1.08
relative viability (LU99A; first compound 0.3162 µM): 1.09
relative viability (NCI-H1563; first compound 0.01 µM): 0.915
relative viability (NCI-H1563; first compound 0.03162 µM): 1.06
relative viability (NCI-H1563; first compound 0.3162 µM): 0.921
relative viability (NCI-H1650; first compound 0.01 µM): 0.762
relative viability (NCI-H1650; first compound 0.03162 µM): 0.922
relative viability (NCI-H1650; first compound 0.3162 µM): 0.54
relative viability (NCI-H1651; first compound 0.01 µM): 0.685
relative viability (NCI-H1651; first compound 0.03162 µM): 0.921
relative viability (NCI-H1651; first compound 0.3162 µM): 0.973
relative viability (NCI-H1793; first compound 0.01 µM): 0.367
relative viability (NCI-H1793; first compound 0.03162 µM): 0.804
relative viability (NCI-H1793; first compound 0.3162 µM): 0.486
relative viability (NCI-H1944; first compound 0.01 µM): 0.789
relative viability (NCI-H1944; first compound 0.03162 µM): 0.88
relative viability (NCI-H1944; first compound 0.3162 µM): 0.903
relative viability (NCI-H2347; first compound 0.01 µM): 1.05
relative viability (NCI-H2347; first compound 0.03162 µM): 1.02
relative viability (NCI-H2347; first compound 0.3162 µM): 1.02
relative viability (NCI-H23; first compound 0.03162 µM): 1.23
relative viability (NCI-H23; first compound 0.3162 µM): 1.07
relative viability (NCI-H460; first compound 0.01 µM): 0.519
relative viability (NCI-H460; first compound 0.03162 µM): 1.1
relative viability (NCI-H460; first compound 0.3162 µM): 1.5
relative viability (NCI-H650; first compound 0.01 µM): 0.649
relative viability (NCI-H650; first compound 0.03162 µM): 1.19
relative viability (NCI-H650; first compound 0.3162 µM): 0.849
relative viability (NCI-H727; first compound 0.01 µM): 0.788
relative viability (NCI-H727; first compound 0.03162 µM): 0.945
relative viability (NCI-H727; first compound 0.3162 µM): 0.751
relative viability (NCI-H838; first compound 0.01 µM): 0.99
relative viability (NCI-H838; first compound 0.03162 µM): 1.06
relative viability (NCI-H838; first compound 0.3162 µM): 0.908
relative viability (PC-14; first compound 0.01 µM): 0.351
relative viability (PC-14; first compound 0.03162 µM): 0.404
relative viability (PC-14; first compound 0.3162 µM): 0.348
relative viability (PC-3 [JPC-3]; first compound 0.01 µM): 0.464
relative viability (PC-3 [JPC-3]; first compound 0.03162 µM): 0.489
relative viability (PC-3 [JPC-3]; first compound 0.3162 µM): 0.454
relative viability (RERF-LC-KJ; first compound 0.01 µM): 0.965
relative viability (RERF-LC-KJ; first compound 0.03162 µM): 1.15
relative viability (RERF-LC-KJ; first compound 0.3162 µM): 0.881
relative viability (SW 1573; first compound 0.01 µM): 1.21
relative viability (SW 1573; first compound 0.03162 µM): 1.11
relative viability (SW 1573; first compound 0.3162 µM): 0.939
